Experiments:
late watergrass = assay: Test Example 1: herbicidal activity, application before weed generation under submerged conditions (Table 16, symbol A); format: in vivo, late watergrass (Echinochloa oryzicola); details: 320 g/ha applied herbicide
Procedure, shortened: (§1)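 Emulsion formulation, water-diluted to set dose, was put onto the flooded surface (4 cm depth, alluvial soil) the same day weeds were sown and 2.5-leaf rice transplanted. After 3 weeks at 25-30 °C under glass, each species was rated 0 (≤5% kill) to 5 (≥90% kill).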

Japanese bulrush [1] = assay: Test Example 1: herbicidal activity, application before weed generation under submerged conditions (Table 16, symbol B); format: in vivo, Japanese bulrush (Schoenoplectus juncoides); details: 320 g/ha applied herbicide
Procedure, shortened: as §1

Japanese bulrush [2] = assay: Test Example 2: herbicidal activity, application during weed generation under submerged conditions (Table 17, symbol B); format: in vivo, Japanese bulrush (Schoenoplectus juncoides); details: AAH 320 g/ha; application during weed generation, submerged conditions
Procedure, shortened: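 Mixed weed seedlings in alluvial soil under a 4 cm water layer, greenhouse-grown at 25–30° C. Compound given as a diluted emulsion into the floodwater at the 1–2 leaf stage; response graded after three weeks.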

barnyard grass [3] = assay: Test Example 3: herbicidal effect by foliage application, Wagner pot (Table 18, symbol H); format: in vivo, barnyard grass (Echinochloa crus-galli); details: for herbicidal effect on H: barnyard grass: amount of applied herbicide 320 g/ha
Procedure, shortened: (§2)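 Plants were sown in alluvial soil held under 0.1–0.5 cm standing water and grown 14 days in a greenhouse at 25–30 °C. An emulsifiable formulation, water-diluted to the set dose, was then sprayed onto the foliage, and effects were scored three weeks later using previously defined criteria.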

Chinese sprangletop = assay: Test Example 3: herbicidal effect by foliage application, Wagner pot (Table 18, symbol D); format: in vivo, chinese sprangletop (Leptochloa chinensis); details: for herbicidal effect on D: Chinese sprangletop: amount of applied herbicide 320 g/ha
Procedure, shortened: as §2

southern crabgrass = assay: Test Example 4: herbicidal effect by soil treatment (Table 19, symbol F); format: in vivo, southern crabgrass (Digitaria ciliaris); details: for F: southern crabgrass, herbicidal effect rating: amount of applied herbicide 320 g/ha
Procedure, shortened: (§3)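 Seeds were sown in sterilized diluvial soil and covered with about 1.5 cm of soil. An emulsion formulation diluted with water to a predetermined herbicide amount was sprayed evenly onto the soil surface. Plants grew in a greenhouse at 25° C. to 30° C., and the effect was scored three weeks after application using criteria from an earlier test.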

barnyard grass [4] = assay: Test Example 4: herbicidal effect by soil treatment (Table 19, symbol H); format: in vivo, barnyard grass (Echinochloa crus-galli); details: for H: barnyard grass, herbicidal effect rating: amount of applied herbicide 320 g/ha
Procedure, shortened: as §3

windgrass [5] = assay: Test Example 4: herbicidal effect by soil treatment (Table 19, symbol L); format: in vivo, windgrass (Apera spica-venti); details: for L: windgrass, herbicidal effect rating: amount of applied herbicide 320 g/ha
Procedure, shortened: as §3

lambsquarters [6] = assay: Test Example 4: herbicidal effect by soil treatment (Table 19, symbol O); format: in vivo, lambsquarters (Chenopodium album); details: for O: lambsquarters, herbicidal effect rating: amount of applied herbicide 320 g/ha
Procedure, shortened: as §3

persian speedwell = assay: Test Example 4: herbicidal effect by soil treatment (Table 19, symbol R); format: in vivo, Persian speedwell (Veronica persica); details: for R: persian speedwell, herbicidal effect rating: amount of applied herbicide 320 g/ha
Procedure, shortened: as §3

barnyard grass [7] = assay: Test Example 5: herbicidal effect by foliage application, plastic box (Table 20, symbol H); format: in vivo, barnyard grass (Echinochloa crus-galli); details: foliage application, 320 g/ha, evaluated three weeks after application
Procedure, shortened: (§4)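 Plants sown in sterilized diluvial soil and grown 14 days in a greenhouse at 25° C to 30° C, then sprayed on the foliage with the compound's emulsion diluted in water to a predetermined herbicide amount. Injury to weeds and crops scored three weeks after application on a visual rating scale.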

blackgrass = assay: Test Example 5: herbicidal effect by foliage application, plastic box (Table 20, symbol J); format: in vivo, blackgrass (Alopecurus myosuroides); details: foliage application, 320 g/ha, evaluated three weeks after application
Procedure, shortened: as §4

windgrass [8] = assay: Test Example 5: herbicidal effect by foliage application, plastic box (Table 20, symbol L); format: in vivo, windgrass (Apera spica-venti); details: foliage application, 320 g/ha, evaluated three weeks after application
Procedure, shortened: as §4

redroot pigweed = assay: Test Example 5: herbicidal effect by foliage application, plastic box (Table 20, symbol N); format: in vivo, redroot pigweed (Amaranthus retroflexus); details: foliage application, 320 g/ha, evaluated three weeks after application
Procedure, shortened: as §4

lambsquarters [9] = assay: Test Example 5: herbicidal effect by foliage application, plastic box (Table 20, symbol O); format: in vivo, lambsquarters (Chenopodium album); details: foliage application, 320 g/ha, evaluated three weeks after application
Procedure, shortened: as §4

chickweed = assay: Test Example 5: herbicidal effect by foliage application, plastic box (Table 20, symbol P); format: in vivo, common chickweed (Stellaria media); details: foliage application, 320 g/ha, evaluated three weeks after application
Procedure, shortened: as §4

Cc1nn(C)c(=O)c(-c2c(-c3ccc4c(c3)OCCO4)sc3ccc(F)cc23)c1O [2-092]
Herbicidal effect on A: late watergrass (grade 0-5) (late watergrass): 2 (Herbicidal rate of 20% or more and less than 40%) | Herbicidal effect on B: Japanese bulrush (grade 0-5) (Japanese bulrush [1]): 3 (Herbicidal rate of 40% or more and less than 70%) | herbicidal effect rating, B: Japanese bulrush (Japanese bulrush [2]): 3 (Herbicidal rate of 40% or more and less than 70%) | herbicidal effect on H (barnyard grass), rating 0-5 (barnyard grass [3]; 320 g/ha): 5 (Herbicidal rate of 90% or more (almost completely withered)) | herbicidal effect on D (Chinese sprangletop), rating 0-5 (Chinese sprangletop; 320 g/ha): 4 (Herbicidal rate of 70% or more and less than 90%) | herbicidal effect rating, F: southern crabgrass (southern crabgrass; 320 g/ha): 2 (Herbicidal rate of 20% or more and less than 40%) | herbicidal effect rating, H: barnyard grass (barnyard grass [4]; 320 g/ha): 3 (Herbicidal rate of 40% or more and less than 70%) | herbicidal effect rating, L: windgrass (windgrass [5]; 320 g/ha): 0 (Herbicidal rate of 5% or less (almost no effect)) | herbicidal effect rating, O: lambsquarters (lambsquarters [6]; 320 g/ha): 5 (Herbicidal rate of 90% or more (almost completely withered)) | herbicidal effect rating, R: persian speedwell (persian speedwell; 320 g/ha): 5 (Herbicidal rate of 90% or more (almost completely withered)) | herbicidal effect on H: barnyard grass (barnyard grass [7]): 5 (Herbicidal rate of 90% or more (almost completely withered)) | herbicidal effect on J: blackgrass (blackgrass): 4 (Herbicidal rate of 70% or more and less than 90%) | herbicidal effect on L: windgrass (windgrass [8]): 4 (Herbicidal rate of 70% or more and less than 90%) | herbicidal effect on N: redroot pigweed (redroot pigweed): 5 (Herbicidal rate of 90% or more (almost completely withered)) | herbicidal effect on O: lambsquarters (lambsquarters [9]): 5 (Herbicidal rate of 90% or more (almost completely withered)) | herbicidal effect on P: chickweed (chickweed): 5 (Herbicidal rate of 90% or more (almost completely withered))

Cc1nn(C)c(=O)c(-c2c(-c3ccc(C(F)(F)F)cc3)sc3ccc(Cl)cc23)c1O [2-111]
Herbicidal effect on A: late watergrass (grade 0-5) (late watergrass): 3 (Herbicidal rate of 40% or more and less than 70%) | Herbicidal effect on B: Japanese bulrush (grade 0-5) (Japanese bulrush [1]): 3 (Herbicidal rate of 40% or more and less than 70%) | herbicidal effect rating, B: Japanese bulrush (Japanese bulrush [2]): 1 (Herbicidal rate of 5% or more and less than 20%) | herbicidal effect on H: barnyard grass (barnyard grass [3]): 4 (Herbicidal rate of 70% or more and less than 90%) | herbicidal effect on D: Chinese sprangletop (Chinese sprangletop): 2 (Herbicidal rate of 20% or more and less than 40%) | F: southern crabgrass, herbicidal effect rating (southern crabgrass): 0 (Herbicidal rate of 5% or less (almost no effect)) | H: barnyard grass, herbicidal effect rating (barnyard grass [4]): 0 (Herbicidal rate of 5% or less (almost no effect)) | L: windgrass, herbicidal effect rating (windgrass [5]): 5 (Herbicidal rate of 90% or more (almost completely withered)) | O: lambsquarters, herbicidal effect rating (lambsquarters [6]): 4 (Herbicidal rate of 70% or more and less than 90%) | R: persian speedwell, herbicidal effect rating (persian speedwell): 5 (Herbicidal rate of 90% or more (almost completely withered)) | herbicidal effect on H: barnyard grass (barnyard grass [7]): 4 (Herbicidal rate of 70% or more and less than 90%) | herbicidal effect on J: blackgrass (blackgrass): 5 (Herbicidal rate of 90% or more (almost completely withered)) | herbicidal effect on L: windgrass (windgrass [8]): 5 (Herbicidal rate of 90% or more (almost completely withered)) | herbicidal effect on N: redroot pigweed (redroot pigweed): 5 (Herbicidal rate of 90% or more (almost completely withered)) | herbicidal effect on O: lambsquarters (lambsquarters [9]): 3 (Herbicidal rate of 40% or more and less than 70%) | herbicidal effect on P: chickweed (chickweed): 5 (Herbicidal rate of 90% or more (almost completely withered))

CCCC(=O)Oc1c(C)nn(C)c(=O)c1-c1c(-c2ccccc2OC)sc2ccc(C)cc12 [2-139]
Herbicidal effect on A: late watergrass (grade 0-5) (late watergrass): 4 (Herbicidal rate of 70% or more and less than 90%) | Herbicidal effect on B: Japanese bulrush (grade 0-5) (Japanese bulrush [1]): 3 (Herbicidal rate of 40% or more and less than 70%) | herbicidal effect rating, B: Japanese bulrush (Japanese bulrush [2]): 3 (Herbicidal rate of 40% or more and less than 70%) | herbicidal effect on H: barnyard grass (barnyard grass [3]): 4 (Herbicidal rate of 70% or more and less than 90%) | herbicidal effect on D: Chinese sprangletop (Chinese sprangletop): 0 (Herbicidal rate of 5% or less (almost no effect)) | F: southern crabgrass, herbicidal effect rating (southern crabgrass): 0 (Herbicidal rate of 5% or less (almost no effect)) | H: barnyard grass, herbicidal effect rating (barnyard grass [4]): 0 (Herbicidal rate of 5% or less (almost no effect)) | L: windgrass, herbicidal effect rating (windgrass [5]): 0 (Herbicidal rate of 5% or less (almost no effect)) | O: lambsquarters, herbicidal effect rating (lambsquarters [6]): 0 (Herbicidal rate of 5% or less (almost no effect)) | R: persian speedwell, herbicidal effect rating (persian speedwell): 4 (Herbicidal rate of 70% or more and less than 90%) | herbicidal effect on H: barnyard grass (barnyard grass [7]): 4 (Herbicidal rate of 70% or more and less than 90%) | herbicidal effect on J: blackgrass (blackgrass): 2 (Herbicidal rate of 20% or more and less than 40%) | herbicidal effect on L: windgrass (windgrass [8]): 0 (Herbicidal rate of 5% or less (almost no effect)) | herbicidal effect on N: redroot pigweed (redroot pigweed): 4 (Herbicidal rate of 70% or more and less than 90%) | herbicidal effect on O: lambsquarters (lambsquarters [9]): 3 (Herbicidal rate of 40% or more and less than 70%) | herbicidal effect on P: chickweed (chickweed): 5 (Herbicidal rate of 90% or more (almost completely withered))

C=Cc1ccc2sc(-c3ccccc3OC)c(-c3c(O)c(C)nn(C)c3=O)c2c1 [2-185]
Herbicidal effect on A: late watergrass (grade 0-5) (late watergrass): 0 (Herbicidal rate of 5% or less (almost no effect)) | Herbicidal effect on B: Japanese bulrush (grade 0-5) (Japanese bulrush [1]): 5 (Herbicidal rate of 90% or more (almost completely withered)) | herbicidal effect rating, B: Japanese bulrush (Japanese bulrush [2]): 0 (Herbicidal rate of 5% or less (almost no effect)) | herbicidal effect on H: barnyard grass (barnyard grass [3]): 3 (Herbicidal rate of 40% or more and less than 70%) | herbicidal effect on D: Chinese sprangletop (Chinese sprangletop): 0 (Herbicidal rate of 5% or less (almost no effect)) | F: southern crabgrass, herbicidal effect rating (southern crabgrass): 0 (Herbicidal rate of 5% or less (almost no effect)) | H: barnyard grass, herbicidal effect rating (barnyard grass [4]): 0 (Herbicidal rate of 5% or less (almost no effect)) | L: windgrass, herbicidal effect rating (windgrass [5]): 0 (Herbicidal rate of 5% or less (almost no effect)) | O: lambsquarters, herbicidal effect rating (lambsquarters [6]): 1 (Herbicidal rate of 5% or more and less than 20%) | R: persian speedwell, herbicidal effect rating (persian speedwell): 0 (Herbicidal rate of 5% or less (almost no effect)) | herbicidal effect on H: barnyard grass (criteria 0-5) (barnyard grass [7]): 0 (Herbicidal rate of 5% or less (almost no effect)) | herbicidal effect on J: blackgrass (criteria 0-5) (blackgrass): 1 (Herbicidal rate of 5% or more and less than 20%) | herbicidal effect on L: windgrass (criteria 0-5) (windgrass [8]): 1 (Herbicidal rate of 5% or more and less than 20%) | herbicidal effect on N: redroot pigweed (criteria 0-5) (redroot pigweed): 5 (Herbicidal rate of 90% or more (almost completely withered)) | herbicidal effect on O: lambsquarters (criteria 0-5) (lambsquarters [9]): 4 (Herbicidal rate of 70% or more and less than 90%) | herbicidal effect on P: chickweed (criteria 0-5) (chickweed): 5 (Herbicidal rate of 90% or more (almost completely withered))

Reference: patent US20230085307A1, “PYRIDAZINONE COMPOUND AND HERBICIDE” (NISSAN CHEMICAL CORPORATION, priority 2019, published 2023)
